Measurements from the NIST ThermoML archive (doi:10.1007/s10765-010-0768-y).

Assay: xn = mol fraction of the nth substance listed
Conditions: 101 kPa, Liquid, Pycnometric method

C=CC(=O)OCCCC [butyl 2-propenoate] + Cc1ccccc1C
mass density [kg/m3]
Conditions	288.15 K	293.15 K	298.15 K	303.15 K	308.15 K	313.15 K	318.15 K
x1 = 0.0685	885.81	881.5	877.19	872.88	868.57	864.26	859.95
x1 = 0.1306	887.32	882.97	878.62	874.27	869.92	865.57	861.22
x1 = 0.2018	889	884.6	880.2	875.8	871.41	867.02	862.63
x1 = 0.2738	890.63	886.19	881.75	877.31	872.87	868.44	864.01
x1 = 0.3654	892.61	888.12	883.63	879.14	874.65	870.17	865.69
x1 = 0.4331	894.01	889.49	884.97	880.45	875.93	871.41	866.89
x1 = 0.5072	895.49	890.93	886.37	881.81	877.25	872.7	868.14
x1 = 0.589	897.05	892.45	887.85	883.25	878.65	874.06	869.47
x1 = 0.6522	898.2	893.57	888.94	884.31	879.68	875.06	870.44
x1 = 0.7283	899.51	894.85	890.19	885.53	880.87	876.21	871.55
x1 = 0.7924	900.56	895.87	891.18	886.49	881.8	877.12	872.44
x1 = 0.8587	901.6	896.88	892.16	887.45	882.74	878.03	873.32
x1 = 0.9298	902.64	897.9	893.16	888.42	883.69	878.96	874.23
x1 = 1	903.6	898.85	894.1	889.35	884.6	879.85	875.1

C=CC(=O)OCCCC [butyl 2-propenoate] + Cc1ccccc1
mass density [kg/m3]
Conditions	288.15 K	293.15 K	298.15 K	303.15 K	308.15 K	313.15 K	318.15 K
x1 = 0.0704	875.4	870.63	865.86	861.09	856.32	851.55	846.79
x1 = 0.1402	878.72	873.92	869.12	864.32	859.52	854.72	849.92
x1 = 0.2054	881.63	876.8	871.97	867.14	862.31	857.48	852.65
x1 = 0.2799	884.72	879.86	875	870.15	865.31	860.47	855.63
x1 = 0.3604	887.81	882.94	878.07	873.2	868.34	863.48	858.62
x1 = 0.4338	890.4	885.52	880.64	875.77	870.9	866.03	861.16
x1 = 0.5098	892.88	888	883.12	878.24	873.36	868.48	863.6
x1 = 0.5836	895.08	890.19	885.31	880.43	875.55	870.67	865.79
x1 = 0.6584	897.1	892.22	887.34	882.46	877.58	872.7	867.82
x1 = 0.7198	898.6	893.73	888.86	883.99	879.12	874.25	869.38
x1 = 0.7912	900.18	895.32	890.46	885.6	880.75	875.9	871.05
x1 = 0.8578	901.48	896.64	891.8	886.96	882.12	877.28	872.44
x1 = 0.9324	902.74	897.93	893.12	888.31	883.5	878.69	873.88
x1 = 1	903.6	898.85	894.1	889.35	884.6	879.85	875.1

C=CC(=O)OCCCC [butyl 2-propenoate] + Cc1ccc(C)cc1
mass density [kg/m3]
Conditions	288.15 K	293.15 K	298.15 K	303.15 K	308.15 K	313.15 K	318.15 K
x1 = 0.0712	868.91	864.5	860.09	855.68	851.28	846.88	842.48
x1 = 0.1429	872.25	867.79	863.33	858.87	854.42	849.97	845.52
x1 = 0.213	875.39	870.89	866.39	861.89	857.39	852.9	848.41
x1 = 0.2833	878.45	873.91	869.37	864.84	860.31	855.78	851.25
x1 = 0.3623	881.76	877.19	872.62	868.05	863.48	858.91	854.34
x1 = 0.4313	884.56	879.95	875.34	870.74	866.14	861.54	856.94
x1 = 0.5088	887.58	882.94	878.3	873.66	869.03	864.4	859.77
x1 = 0.5829	890.35	885.68	881.01	876.34	871.68	867.02	862.36
x1 = 0.6542	892.91	888.21	883.51	878.82	874.13	869.44	864.75
x1 = 0.7216	895.22	890.5	885.78	881.06	876.35	871.64	866.93
x1 = 0.7922	897.54	892.8	888.06	883.32	878.58	873.85	869.12
x1 = 0.8586	899.61	894.85	890.09	885.33	880.58	875.83	871.08
x1 = 0.9294	901.67	896.91	892.15	887.39	882.63	877.88	873.13
x1 = 1	903.6	898.85	894.1	889.35	884.6	879.85	875.1

C=CC(=O)OCCCC [butyl 2-propenoate] + c1ccccc1
mass density [kg/m3]
Conditions	288.15 K	293.15 K	298.15 K	303.15 K	308.15 K	313.15 K	318.15 K
x1 = 0.0722	887.23	881.89	876.56	871.23	865.9	860.57	855.24
x1 = 0.142	889.79	884.48	879.17	873.86	868.56	863.26	857.96
x1 = 0.2062	891.94	886.65	881.36	876.08	870.8	865.52	860.24
x1 = 0.2794	894.12	888.87	883.62	878.37	873.12	867.87	862.62
x1 = 0.3586	896.24	891.02	885.8	880.58	875.36	870.14	864.92
x1 = 0.4363	898.02	892.83	887.64	882.46	877.28	872.1	866.92
x1 = 0.5074	899.4	894.25	889.11	883.97	878.83	873.69	868.55
x1 = 0.5818	900.63	895.53	890.43	885.33	880.23	875.13	870.03
x1 = 0.6423	901.47	896.4	891.33	886.26	881.2	876.14	871.08
x1 = 0.7226	902.36	897.34	892.32	887.3	882.29	877.28	872.27
x1 = 0.7902	902.91	897.94	892.97	888	883.03	878.07	873.11
x1 = 0.8563	903.29	898.38	893.47	888.56	883.65	878.75	873.85
x1 = 0.9305	903.53	898.69	893.85	889.01	884.18	879.35	874.52
x1 = 1	903.6	898.85	894.1	889.35	884.6	879.85	875.1
